Laboratory results published in the supplement of paper PMC11061612.

Columns and labels:
[1] = tested on: HGC-27 (Gastric Carcinoma); assay: combination Emax (second highest fraction inhibited in the dose matrix, 72 h); higher = more inhibition; extreme values may be limits of the assay
Method in brief: (§1)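 Cell lines grown in DMEM/F12 or RPMI with 10% FBS were plated in 1536-well plates and held 24 hours at 37°C, 5% CO2 before 72 hours of exposure to two-drug dose matrices, with DMSO typically at 0.2%. CellTiter-Glo 2.0 luminescence gave viability, which was converted to inhibition. Vehicle wells were set to 0 and blank wells to 1. Combination Emax is the second-highest inhibition in the matrix, and Bliss excess is the observed combination effect minus the expected EA + EB − EA·EB, where EA and EB are the single-agent effects.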

[2] = tested on: TE-1 (Esophageal Squamous Cell Carcinoma); assay: as above
Method in brief: as §1

[3] = tested on: OVCAR-4 (Ovarian Carcinoma); assay: as above
Method in brief: as §1

[4] = tested on: HSC-4 (Oral Cavity Carcinoma); assay: as above
Method in brief: as §1

[5] = tested on: OE19 (Esophageal Adenocarcinoma); assay: as above
Method in brief: as §1

[6] = tested on: HOP-62 (Lung Adenocarcinoma); assay: as above
Method in brief: as §1

PWR-1E (Non-Cancerous) = assay: as above
Method in brief: as §1

[7] = tested on: SCC-15 (Oral Cavity Carcinoma); assay: Bliss excess, mean over the matrix (fraction); higher = more synergy
Method in brief: as §1

[8] = tested on: OSC-20 (Oral Cavity Carcinoma); assay: as above
Method in brief: as §1

[9] = tested on: VA-ES-BJ (Other Solid Carcinomas); assay: as above
Method in brief: as §1

[10] = tested on: HGC-27 (Gastric Carcinoma); assay: as above
Method in brief: as §1

[11] = tested on: TE-1 (Esophageal Squamous Cell Carcinoma); assay: as above
Method in brief: as §1

[12] = tested on: OVCAR-4 (Ovarian Carcinoma); assay: as above
Method in brief: as §1

[13] = tested on: OE19 (Esophageal Adenocarcinoma); assay: as above
Method in brief: as §1

[14] = tested on: HOP-62 (Lung Adenocarcinoma); assay: as above
Method in brief: as §1

[15] = tested on: NUGC-3 (Gastric Carcinoma); assay: as above
Method in brief: as §1

[16] = tested on: KMOE-2 (Acute Myeloid Leukemia); assay: as above
Method in brief: as §1

[17] = tested on: JVM-3 (B-Cell Non-Hodgkin's Lymphoma); assay: as above
Method in brief: as §1

[18] = tested on: C-4-I (Cervical Carcinoma); assay: as above
Method in brief: as §1

[19] = tested on: NEC8 (Other Solid Carcinomas); assay: as above
Method in brief: as §1
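For Bliss excess, mean over the matrix in this document: after 72 h of two-drug dosing.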

Row | SMILES | combination Emax [1] | combination Emax [2] | combination Emax [3] | combination Emax [4] | combination Emax [5] | combination Emax [6] | combination Emax (PWR-1E (Non-Cancerous)) | Bliss excess [7] | Bliss excess [8] | Bliss excess [9] | Bliss excess [10] | Bliss excess [11] | Bliss excess [12] | Bliss excess [13] | Bliss excess [14] | Bliss excess [15] | Bliss excess [16] | Bliss excess [17] | Bliss excess [18] | Bliss excess [19]
1 | Cc1cc2ncnn2cc1Nc1ncc2c(n1)n(C1CCOCC1)c(=O)n2C [AZD7648] + C[C@@H]1COCCN1C2=NC(=NC(=C2)C3(CC3)[S@](=N)(=O)C)C4=C5C=CNC5=NC=C4 [AZD6738] (first compound max 10 µM, 7x7, partner max 10 µM) | 0.849 | 0.414 | 0.737 | 0.584 | 0.813 | 0.435 | 0.769 | 0.0975 | 0.0065 | -0.0099 | -0.0265 | -0.0086 | -0.0053 | -0.0607 | -0.0009 | -0.0657 | 0.0035 | 0.0108 | 0.0255 | 0.0119
2 | CN(CCO)CC[C@H](CSc1ccccc1)Nc1ccc(S(=O)(=O)NC(=O)c2ccc(N3CCC([C@@H](O)c4ccccc4-c4ccc(Cl)cc4)CC3)cc2)cc1S(=O)(=O)C(F)(F)F [AZD4320] + C[C@@H](Nc1cc(F)cc(F)c1)c1cc(C(=O)N(C)C)cc2c(=O)cc(N3CCOCC3)oc12 [AZD8186] (first compound max 1 µM, 7x7, partner max 3 µM) | 0.64 | 0.532 | 0.322 | 0.852 | 0.489 | 0.602 | 0.592 | -0.0179 | 0.0146 | 0.0393 | -0.0272 | -0.0549 | 0.0154 | 0.0201 | -0.0226 | -0.0383 | 0.0407 | 0.0456 | 0.0681 | 0.0171
3 | Cc1cc2ncnn2cc1Nc1ncc2c(n1)n(C1CCOCC1)c(=O)n2C [AZD7648] + CCN(CCO)CCCOc1ccc2c(Nc3cc(CC(=O)Nc4cccc(F)c4)[nH]n3)ncnc2c1 [AZD2811] (first compound max 10 µM, 7x7, partner max 1 µM) | 0.856 | 0.246 | 0.285 | 0.188 | 0.774 | 0.204 | 0.588 | 0.071 | -0.0209 | -0.0034 | -0.0685 | -0.0535 | -0.0035 | 0.0151 | 0.0126 | -0.0046 | 0.0325 | 0.0791 | 0.048 | -0.0082
4 | COc1cc2c(cc1OCCCCCOc1cc3c(cc1OC)C(=O)N1C=C(C)C[C@H]1C=N3)N=C[C@@H]1CC(C)=CN1C2=O [SG3199] + O=C(c1cc(Cc2n[nH]c(=O)c3ccccc23)ccc1F)N1CCN(C(=O)C2CC2)CC1 [Olaparib] (first compound max 0.001 µM, 7x7, partner max 10 µM) | 0.464 | 0.194 | 0.126 | 0.212 | 0.216 | 0.118 | 0.0981 | -0.03 | -0.0319 | 0.0099 | 0.0358 | -0.0286 | -0.0193 | 0.0098 | -0.0276 | -0.0332 | -0.0283 | -0.0278 | -0.012 | 0.0376
